Measurements: US20220187282A1, “CARDIOMYOCYTE PROLIFERATION” (The Council of the Queensland Institute of Medical Research, priority 2019, published 2022)
Like-named read-outs stand apart in the source and are kept apart here.

Experiments:
Assay type in all cases: biochemical
kinases [1] = target: kinases (Homo sapiens, UniProt Q16832); details: DDR2 Hu Bind FRET-Lantha SP; Test Conc(μM) 1
kinases [2] = target: kinases (Homo sapiens, UniProt O15111); details: CHUK(IKK alpha) FRET-Adapta SP; Test Conc(μM):ATP Conc(μM) 1:10
kinases [3] = target: kinases (Homo sapiens, UniProt Q9Y3S1); details: WNK2 FRET-Lantha SP; Test Conc(μM) 1
kinases [4] = target: kinases (Homo sapiens, UniProt Q8TCG2); details: PI4K2B *Mn* FRET-Adapta SP; Test Conc(μM):ATP Conc(μM) 1:10
kinases [5] = target: kinases (Homo sapiens, UniProt O60674)
kinases [6] = target: kinases (Homo sapiens, UniProt Q9NYL2); details: ZAK FRET-Lantha SP; Test Conc(μM) 1
kinases [7] = target: kinases (Homo sapiens, UniProt Q8IWQ3); details: BRSK2 FRET-Lantha SP; Test Conc(μM) 1
kinases [8] = target: kinases (Homo sapiens, UniProt P49840); details: GSK3A FRET-Z-Lyte SP; Test Conc(μM):ATP Conc(μM) 1:10
kinases [9] = target: kinases (Homo sapiens, UniProt Q96RR4); details: CAMKK2 (Beta) FRET-Lantha SP; Test Conc(μM) 1
kinases [10] = target: kinases (Homo sapiens, UniProt P42684); details: ABL2 (Arg) FRET-Z-Lyte SP; Test Conc(μM):ATP Conc(μM) 1:25
kinases [11] = target: kinases (Homo sapiens, UniProt P43250); details: GRK6 FRET-Z-Lyte SP; Test Conc(μM):ATP Conc(μM) 1:10
kinases [12] = target: kinases (Homo sapiens, UniProt P54646)
kinases [13] = target: kinases (Homo sapiens, UniProt Q05513); details: PRKCZ (PKC zeta) Z-Lyte SP; Test Conc(μM):ATP Conc(μM) 1:5
kinases [14] = target: kinases (Homo sapiens, UniProt Q08345); details: DDR1 FRET-Lantha SP; Test Conc(μM) 1
kinases [15] = target: kinases (Homo sapiens, UniProt P42679); details: MATK (HYL) FRET-Z-Lyte SP
kinases [16] = target: kinases (Homo sapiens, UniProt Q08881); details: ITK FRET-Z-Lyte SP; Test Conc(μM):ATP Conc(μM) 1:5
kinases [17] = target: kinases (Homo sapiens, UniProt Q8WXR4); details: MYO3B FRET-Lantha SP; Test Conc(μM) 1
kinases [18] = target: kinases (Homo sapiens, UniProt P22607); details: FGFR3 *Mn* FRET-Z-Lyte SP; Test Conc(μM):ATP Conc(μM) 1:75
kinases [19] = target: kinases (Homo sapiens, UniProt P21802); details: FGFR2 *Mn* FRET-Z-Lyte SP; Test Conc(μM):ATP Conc(μM) 1:5
kinases [20] = target: kinases (Homo sapiens, UniProt Q9NQU5); details: PAK6 FRET-Z-Lyte SP; Test Conc(μM):ATP Conc(μM) 1:10
kinases [21] = target: kinases (Homo sapiens, UniProt O94921); details: CDK14(PFTK1)/cyclinY Lantha SP; Test Conc(μM) 1
kinases [22] = target: kinases (Homo sapiens, UniProt Q8NE63); details: HIPK4 FRET-Z-Lyte SP; Test Conc(μM):ATP Conc(μM) 1:50
kinases [23] = target: kinases (Homo sapiens, UniProt Q8TF76); details: GSG2 (Haspin) FRET-Adapta SP; Test Conc(μM):ATP Conc(μM) 1:25
kinases [24] = target: kinases (Homo sapiens, UniProt Q16512); details: PKN1 (PRK1) FRET-Z-Lyte SP; Test Conc(μM):ATP Conc(μM) 1:50
kinases [25] = target: kinases (Homo sapiens, UniProt P43405); details: SYK FRET-Z-Lyte SP; Test Conc(μM):ATP Conc(μM) 1:25
kinases [26] = target: kinases (Homo sapiens, UniProt P53350); details: PLK1 FRET-Z-Lyte SP; Test Conc(μM):ATP Conc(μM) 1:10
kinases [27] = target: kinases (Homo sapiens, UniProt Q9BWU1); details: Test Conc(μM) 1
kinases [28] = target: kinases (Homo sapiens, UniProt Q15746); details: MYLK (MLCK) FRET-Lantha SP; Test Conc(μM) 1
[29] = JAK2 FRET-Z-Lyte SP, Test Conc(μM):ATP Conc(μM) 1:25
[30] = AMPK (A2/B2/G1) FRET-Lantha SP, Test Conc(μM) 1
[31] = AMPK (A2/B2/G2) FRET-Lantha SP, Test Conc(μM) 1
[32] = AMPK A2/B1/G1 FRET-Z-Lyte SP, Test Conc(μM):ATP Conc(μM) 1:150
[33] = AMPK A2/B1/G2 FRET-Z-Lyte SP, Test Conc(μM):ATP Conc(μM) 1:10
[34] = AMPK A2/B1/G3 FRET-Z-Lyte SP, Test Conc(μM):ATP Conc(μM) 1:25
[35] = AMPK A2/B2/G3 FRET-Z-Lyte SP, Test Conc(μM):ATP Conc(μM) 1:50

Chain of kinases (Homo sapiens, UniProt O60674) (O60674 whole entry): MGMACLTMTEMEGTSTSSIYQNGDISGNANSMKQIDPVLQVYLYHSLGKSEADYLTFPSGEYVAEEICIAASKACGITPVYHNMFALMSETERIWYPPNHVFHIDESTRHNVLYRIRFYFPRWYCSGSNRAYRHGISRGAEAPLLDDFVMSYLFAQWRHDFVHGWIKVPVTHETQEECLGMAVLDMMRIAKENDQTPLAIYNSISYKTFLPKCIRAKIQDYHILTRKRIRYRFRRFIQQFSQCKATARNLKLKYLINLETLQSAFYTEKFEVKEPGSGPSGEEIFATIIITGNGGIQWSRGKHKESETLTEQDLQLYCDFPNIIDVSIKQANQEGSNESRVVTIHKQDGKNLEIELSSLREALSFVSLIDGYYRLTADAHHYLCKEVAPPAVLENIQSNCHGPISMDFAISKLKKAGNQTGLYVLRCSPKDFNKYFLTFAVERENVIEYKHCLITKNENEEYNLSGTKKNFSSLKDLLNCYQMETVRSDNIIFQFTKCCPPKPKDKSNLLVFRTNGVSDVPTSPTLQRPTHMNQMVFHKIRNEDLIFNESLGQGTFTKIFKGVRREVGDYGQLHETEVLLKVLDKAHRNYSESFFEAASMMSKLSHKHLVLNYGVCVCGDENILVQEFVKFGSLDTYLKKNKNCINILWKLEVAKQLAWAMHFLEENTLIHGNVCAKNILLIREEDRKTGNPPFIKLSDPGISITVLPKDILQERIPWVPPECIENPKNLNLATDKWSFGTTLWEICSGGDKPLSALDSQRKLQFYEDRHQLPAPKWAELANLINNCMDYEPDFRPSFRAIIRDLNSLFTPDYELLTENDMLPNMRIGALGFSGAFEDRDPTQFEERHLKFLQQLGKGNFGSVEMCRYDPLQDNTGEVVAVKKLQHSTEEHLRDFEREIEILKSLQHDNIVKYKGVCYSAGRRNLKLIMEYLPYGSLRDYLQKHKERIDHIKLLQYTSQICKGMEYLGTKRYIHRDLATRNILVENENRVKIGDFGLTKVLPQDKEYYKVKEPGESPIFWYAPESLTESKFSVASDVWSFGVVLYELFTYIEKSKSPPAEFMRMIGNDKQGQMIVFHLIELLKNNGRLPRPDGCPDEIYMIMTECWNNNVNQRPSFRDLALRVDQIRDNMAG
Chain of kinases (Homo sapiens, UniProt P54646) (P54646 whole entry): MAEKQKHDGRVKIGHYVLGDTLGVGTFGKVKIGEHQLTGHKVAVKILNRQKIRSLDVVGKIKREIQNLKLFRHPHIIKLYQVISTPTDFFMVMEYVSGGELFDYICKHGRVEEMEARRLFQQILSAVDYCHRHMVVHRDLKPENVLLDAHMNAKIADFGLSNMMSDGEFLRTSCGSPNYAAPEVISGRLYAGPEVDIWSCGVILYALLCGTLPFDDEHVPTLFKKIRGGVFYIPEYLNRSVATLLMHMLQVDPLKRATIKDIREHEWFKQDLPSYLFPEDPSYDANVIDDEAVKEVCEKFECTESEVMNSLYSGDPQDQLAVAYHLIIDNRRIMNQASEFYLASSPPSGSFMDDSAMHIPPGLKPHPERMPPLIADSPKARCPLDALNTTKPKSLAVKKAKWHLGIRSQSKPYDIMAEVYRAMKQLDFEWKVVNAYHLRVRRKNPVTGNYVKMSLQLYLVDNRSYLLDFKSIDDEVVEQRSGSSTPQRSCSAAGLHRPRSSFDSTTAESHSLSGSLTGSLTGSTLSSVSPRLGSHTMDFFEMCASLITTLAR
Chain of kinases (Homo sapiens, UniProt Q9BWU1) (Q9BWU1 whole entry): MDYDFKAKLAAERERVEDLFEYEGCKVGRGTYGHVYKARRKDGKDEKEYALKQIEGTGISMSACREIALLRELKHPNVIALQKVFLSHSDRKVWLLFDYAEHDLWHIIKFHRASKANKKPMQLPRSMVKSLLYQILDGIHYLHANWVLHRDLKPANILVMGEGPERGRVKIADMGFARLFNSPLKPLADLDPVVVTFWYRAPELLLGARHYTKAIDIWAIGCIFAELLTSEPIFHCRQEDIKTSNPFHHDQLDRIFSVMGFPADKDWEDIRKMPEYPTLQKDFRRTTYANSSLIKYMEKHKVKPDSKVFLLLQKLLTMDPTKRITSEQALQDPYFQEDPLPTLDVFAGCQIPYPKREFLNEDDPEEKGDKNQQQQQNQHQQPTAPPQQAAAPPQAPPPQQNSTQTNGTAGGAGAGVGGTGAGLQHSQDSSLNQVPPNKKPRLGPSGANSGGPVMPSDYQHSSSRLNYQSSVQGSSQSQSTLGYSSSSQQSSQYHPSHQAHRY
Chain of kinases (Homo sapiens, UniProt P43250) (P43250 whole entry): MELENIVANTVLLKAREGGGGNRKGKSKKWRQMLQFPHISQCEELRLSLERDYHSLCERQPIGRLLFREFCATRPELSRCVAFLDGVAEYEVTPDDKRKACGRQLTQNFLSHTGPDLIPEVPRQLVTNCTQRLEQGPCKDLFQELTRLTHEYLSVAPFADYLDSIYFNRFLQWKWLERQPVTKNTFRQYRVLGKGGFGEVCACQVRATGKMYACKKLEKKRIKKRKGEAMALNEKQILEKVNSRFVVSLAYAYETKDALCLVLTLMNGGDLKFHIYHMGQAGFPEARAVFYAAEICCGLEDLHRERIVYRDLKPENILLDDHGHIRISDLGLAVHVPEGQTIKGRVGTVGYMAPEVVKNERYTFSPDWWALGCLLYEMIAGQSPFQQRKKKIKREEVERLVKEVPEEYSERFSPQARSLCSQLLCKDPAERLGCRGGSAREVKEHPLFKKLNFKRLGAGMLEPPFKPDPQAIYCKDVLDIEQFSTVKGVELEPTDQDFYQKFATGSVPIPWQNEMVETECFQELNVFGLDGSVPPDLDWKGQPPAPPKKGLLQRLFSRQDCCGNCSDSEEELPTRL
Chain of kinases (Homo sapiens, UniProt Q8TF76) (Q8TF76 whole entry): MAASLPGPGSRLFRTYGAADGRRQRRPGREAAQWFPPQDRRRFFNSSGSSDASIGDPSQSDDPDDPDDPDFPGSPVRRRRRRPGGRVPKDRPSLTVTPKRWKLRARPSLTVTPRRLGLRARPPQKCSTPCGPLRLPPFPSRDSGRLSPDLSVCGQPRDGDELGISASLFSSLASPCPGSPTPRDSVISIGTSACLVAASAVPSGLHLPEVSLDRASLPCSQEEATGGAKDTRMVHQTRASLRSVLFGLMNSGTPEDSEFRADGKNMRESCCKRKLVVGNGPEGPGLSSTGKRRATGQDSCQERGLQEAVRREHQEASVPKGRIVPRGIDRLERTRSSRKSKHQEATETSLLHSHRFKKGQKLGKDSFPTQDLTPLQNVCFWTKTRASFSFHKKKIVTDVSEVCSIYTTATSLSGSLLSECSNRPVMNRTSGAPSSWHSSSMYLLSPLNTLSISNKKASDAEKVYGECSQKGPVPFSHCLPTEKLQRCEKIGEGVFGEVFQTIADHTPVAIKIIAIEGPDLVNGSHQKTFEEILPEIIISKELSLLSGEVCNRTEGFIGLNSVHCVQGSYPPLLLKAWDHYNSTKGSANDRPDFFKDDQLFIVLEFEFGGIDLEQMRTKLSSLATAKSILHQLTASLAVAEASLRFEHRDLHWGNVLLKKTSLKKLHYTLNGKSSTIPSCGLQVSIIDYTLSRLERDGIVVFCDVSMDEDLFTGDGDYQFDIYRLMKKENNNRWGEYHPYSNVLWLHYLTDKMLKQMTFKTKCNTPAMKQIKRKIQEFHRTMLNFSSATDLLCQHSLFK
Chain of kinases (Homo sapiens, UniProt Q8NE63) (Q8NE63 whole entry): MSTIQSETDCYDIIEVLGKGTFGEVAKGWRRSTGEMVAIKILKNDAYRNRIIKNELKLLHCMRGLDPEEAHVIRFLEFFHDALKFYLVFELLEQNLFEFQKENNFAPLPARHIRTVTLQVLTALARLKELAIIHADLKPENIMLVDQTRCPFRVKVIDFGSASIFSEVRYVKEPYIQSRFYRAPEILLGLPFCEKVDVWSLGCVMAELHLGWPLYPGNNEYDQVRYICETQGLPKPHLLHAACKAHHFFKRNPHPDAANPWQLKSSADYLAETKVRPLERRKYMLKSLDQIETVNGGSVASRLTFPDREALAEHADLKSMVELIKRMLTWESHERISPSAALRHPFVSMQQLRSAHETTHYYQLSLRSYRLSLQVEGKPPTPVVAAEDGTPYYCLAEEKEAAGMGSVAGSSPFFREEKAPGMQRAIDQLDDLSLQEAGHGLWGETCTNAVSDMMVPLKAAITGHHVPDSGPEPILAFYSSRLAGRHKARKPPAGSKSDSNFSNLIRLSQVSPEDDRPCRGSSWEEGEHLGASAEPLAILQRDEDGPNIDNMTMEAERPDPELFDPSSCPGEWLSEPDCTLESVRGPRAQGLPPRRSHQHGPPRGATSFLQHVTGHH
Chain of kinases (Homo sapiens, UniProt Q9NQU5) (Q9NQU5 whole entry): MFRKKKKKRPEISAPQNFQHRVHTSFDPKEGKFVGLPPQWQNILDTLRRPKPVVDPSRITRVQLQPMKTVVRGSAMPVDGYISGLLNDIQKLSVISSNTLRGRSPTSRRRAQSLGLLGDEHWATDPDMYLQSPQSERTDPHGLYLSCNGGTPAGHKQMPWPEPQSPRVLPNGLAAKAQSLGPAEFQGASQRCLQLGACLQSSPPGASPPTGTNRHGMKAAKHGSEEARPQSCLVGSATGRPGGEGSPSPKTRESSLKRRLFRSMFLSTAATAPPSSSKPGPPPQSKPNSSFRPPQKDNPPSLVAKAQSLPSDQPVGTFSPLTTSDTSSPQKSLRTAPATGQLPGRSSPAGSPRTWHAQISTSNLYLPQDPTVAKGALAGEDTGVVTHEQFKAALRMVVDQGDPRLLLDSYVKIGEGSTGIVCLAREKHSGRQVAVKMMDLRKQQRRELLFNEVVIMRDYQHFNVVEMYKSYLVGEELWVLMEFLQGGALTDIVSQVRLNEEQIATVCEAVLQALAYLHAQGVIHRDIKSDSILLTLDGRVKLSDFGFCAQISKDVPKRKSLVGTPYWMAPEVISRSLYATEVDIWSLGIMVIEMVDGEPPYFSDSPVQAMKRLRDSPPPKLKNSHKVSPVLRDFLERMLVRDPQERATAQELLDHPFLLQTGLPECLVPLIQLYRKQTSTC

| Structure (SMILES) | Mean Inhib (%) (kinases [1]) | Mean Inhib (%) (kinases [2]) | Mean Inhib (%) (kinases [3]) | Mean Inhib (%) (kinases [4]) | Mean Inhib (%) (kinases [5]; [29]) | Mean Inhib (%) (kinases [6]) | Mean Inhib (%) (kinases [7]) | Mean Inhib (%) (kinases [8]) | Mean Inhib (%) (kinases [9]) | Mean Inhib (%) (kinases [10]) | Mean Inhib (%) (kinases [11]) | Mean Inhib (%) (kinases [12]; [30]) | Mean Inhib (%) (kinases [12]; [31]) | Mean Inhib (%) (kinases [12]; [32]) | Mean Inhib (%) (kinases [12]; [33]) | Mean Inhib (%) (kinases [12]; [34]) | Mean Inhib (%) (kinases [12]; [35]) | Mean Inhib (%) (kinases [13]) | Mean Inhib (%) (kinases [14]) | Mean Inhib (%) (kinases [16]) | also measured |
| --- | --- | --- | --- | --- | --- | --- | --- | --- | --- | --- | --- | --- | --- | --- | --- | --- | --- | --- | --- | --- | --- |
| Cc1ccc(NC(=O)c2ccnc(N3CCOCC3)c2)cc1Nc1ccnc(N2CC(C)OC(C)C2)n1 (stereo not shown) [compound 3] | 65.5% | −6.9% | 9.6% | −15.8% | −7.7% | 3.1% | 3.2% | 9.4% | −2.5% | −1.3% | 0.8% | −0.8% | −1.1% | −3.5% | 11.4% | 7.8% | 3.8% | 12.0% | 82.4% | 6.1% | Mean Inhib (%) (kinases [5]; JAK2 JH1 JH2 FRET-Z-Lyte SP, ATP Conc(μM):Test Conc(μM) 1:25): −0.1%; Mean Inhib (%) (kinases [15]; Test Conc(μM):ATP Conc(μM) 1:300): 3.2%; Mean Inhib (%) (kinases [17]): 3.9%; Mean Inhib (%) (kinases [18]): −2.6%; Mean Inhib (%) (kinases [19]): 15.8%; Mean Inhib (%) (kinases [20]): 15.9%; Mean Inhib (%) (kinases [21]): 3.5%; Mean Inhib (%) (kinases [22]): −2.8%; Mean Inhib (%) (kinases [23]): −5.6%; Mean Inhib (%) (kinases [24]): −5.8%; Mean Inhib (%) (kinases [25]): −3.9%; Mean Inhib (%) (kinases [26]): 3.0%; Mean Inhib (%) (kinases [27]; CDK11(Inactive) FRET-Lantha SP): −0.2%; Mean Inhib (%) (kinases [27]; CDK11 Cyclin C FRET-Lantha SP): 2.1%; Mean Inhib (%) (kinases [28]): 2.2% |
| Cc1cc(Oc2ccnc(Nc3ccc(S(N)(=O)=O)cc3)c2)c(-c2ccccn2)nc1C [compound 65] | 1.6% | −6.2% | 5.8% | 1.8% | 4.7% | 78.3% | 10.2% | 3.2% | −3.4% | 82.6% | 2.1% | −1.2% | 1.4% | 2.9% | −6.7% | −5.2% | −4.3% | −22.4% | 1.7% | −6.9% | Mean Inhib (%) (kinases [5]; JAK2 JH1 JH2 FRET-Z-Lyte SP, ATP Conc(μM):Test Conc(μM) 1:50): −3.9%; Mean Inhib (%) (kinases [15]; Test Conc(μM):ATP Conc(μM) 0.25): 1.8%; Mean Inhib (%) (kinases [17]): 4.1%; Mean Inhib (%) (kinases [18]): 7.7%; Mean Inhib (%) (kinases [19]): 6.0%; Mean Inhib (%) (kinases [20]): 16.2%; Mean Inhib (%) (kinases [21]): 11.7%; Mean Inhib (%) (kinases [22]): 8.8%; Mean Inhib (%) (kinases [23]): −1.9%; Mean Inhib (%) (kinases [24]): 0.4%; Mean Inhib (%) (kinases [25]): 2.5%; Mean Inhib (%) (kinases [26]): 9.6%; Mean Inhib (%) (kinases [27]; CDK11(Inactive) FRET-Lantha SP): 1.0%; CDK11 Cyclin C FRET-Lantha SP Mean Mean Inhib (%) (kinases [27]; CDK11 Cyclin C): 3.8%; Mean Inhib (%) (kinases [28]): −0.5% |
